Reference: PubChem BioAssay (NCI)
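Each compound was tested at five concentrations against cells in 96-well plates for 48 hours. GI50: concentration for 50% inhibition of growth. Definition used: TGI = concentration required for complete inhibition of growth.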

Experiments:
Experiment in all cases: NCI-60 cell line screen, 48 h
SF-539 CNS = test system: SF-539 CNS
OVCAR-3 ovarian = test system: OVCAR-3 ovarian
CAKI-1 renal = test system: CAKI-1 renal
NCI-H522 lung = test system: NCI-H522 lung
MDA-MB-468 breast = test system: MDA-MB-468 breast
CCRF-CEM leukemia = test system: CCRF-CEM leukemia
OVCAR-8 ovarian = test system: OVCAR-8 ovarian
UO-31 renal = test system: UO-31 renal
MOLT-4 leukemia = test system: MOLT-4 leukemia
HCT-15 colon = test system: HCT-15 colon
IGROV1 ovarian = test system: IGROV1 ovarian
U251 CNS = test system: U251 CNS
SW-620 colon = test system: SW-620 colon
786-0 renal = test system: 786-0 renal
SR leukemia = test system: SR leukemia
OVCAR-4 ovarian = test system: OVCAR-4 ovarian
NCI/ADR-RES ovarian = test system: NCI/ADR-RES ovarian
COLO 205 colon = test system: COLO 205 colon
UACC-257 melanoma = test system: UACC-257 melanoma
TK-10 renal = test system: TK-10 renal
RXF 393 renal = test system: RXF 393 renal
SK-MEL-2 melanoma = test system: SK-MEL-2 melanoma
MALME-3M melanoma = test system: MALME-3M melanoma
HOP-62 NSCLC = test system: HOP-62 NSCLC
SF-268 CNS = test system: SF-268 CNS
UACC-62 melanoma = test system: UACC-62 melanoma
SNB-75 CNS = test system: SNB-75 CNS
ACHN renal = test system: ACHN renal
KM12 colon = test system: KM12 colon
OVCAR-5 ovarian = test system: OVCAR-5 ovarian
SK-OV-3 ovarian = test system: SK-OV-3 ovarian
SNB-19 CNS = test system: SNB-19 CNS
SF-295 CNS = test system: SF-295 CNS
M14 melanoma = test system: M14 melanoma
SN12C renal = test system: SN12C renal
HOP-92 NSCLC = test system: HOP-92 NSCLC
HL-60(TB) leukemia = test system: HL-60(TB) leukemia
K-562 leukemia = test system: K-562 leukemia
PC-3 prostate = test system: PC-3 prostate
RPMI-8226 leukemia = test system: RPMI-8226 leukemia
MCF7 breast = test system: MCF7 breast
HS 578T breast = test system: HS 578T breast
HCC-2998 colon = test system: HCC-2998 colon
MDA-MB-435 = test system: MDA-MB-435
BT-549 breast = test system: BT-549 breast
DU-145 prostate = test system: DU-145 prostate
SK-MEL-5 melanoma = test system: SK-MEL-5 melanoma
T-47D breast = test system: T-47D breast
LOX IMVI melanoma = test system: LOX IMVI melanoma
NCI-H23 lung = test system: NCI-H23 lung
NCI-H460 lung = test system: NCI-H460 lung
HT29 colon = test system: HT29 colon
SK-MEL-28 melanoma = test system: SK-MEL-28 melanoma
NCI-H226 lung = test system: NCI-H226 lung
A549 NSCLC = test system: A549 NSCLC
A498 renal = test system: A498 renal
HCT-116 colon = test system: HCT-116 colon
EKVX NSCLC = test system: EKVX NSCLC
MDA-MB-231 breast = test system: MDA-MB-231 breast

Question: With `Fc1ccc(/C=C/c2nc3ccccc3n3c(-c4ccc(Cl)cc4)nnc23)cc1` as the compound, how does the GI50 (SF-539 CNS) read?
Answer: 16.8 µM

Question: What about the TGI (SF-539 CNS) of the same compound?
Answer: 40.6 µM

Question: And the GI50 (OVCAR-3 ovarian)?
Answer: 23 µM

Question: What about the TGI (OVCAR-3 ovarian) of the same compound?
Answer: > 100 µM

Question: And the GI50 (CAKI-1 renal)?
Answer: 44.2 µM

Question: And the TGI (CAKI-1 renal)?
Answer: > 100 µM

Question: What about the GI50 (NCI-H522 lung) of the same compound?
Answer: 1.47 µM

Question: And the TGI (NCI-H522 lung)?
Answer: 3.01 µM

Question: And the GI50 (MDA-MB-468 breast)?
Answer: 3.78 µM

Question: And the TGI (MDA-MB-468 breast)?
Answer: 20.2 µM

Question: What about the GI50 (CCRF-CEM leukemia) of the same compound?
Answer: 2.82 µM

Question: And the TGI (CCRF-CEM leukemia)?
Answer: 8.8 µM

Question: What about the GI50 (OVCAR-8 ovarian) of the same compound?
Answer: 16.2 µM

Question: What about the TGI (OVCAR-8 ovarian) of the same compound?
Answer: 80.4 µM

Question: And the GI50 (UO-31 renal)?
Answer: 14.1 µM

Question: And the TGI (UO-31 renal)?
Answer: > 100 µM

Question: And the GI50 (MOLT-4 leukemia)?
Answer: 3.74 µM

Question: What about the TGI (MOLT-4 leukemia) of the same compound?
Answer: 34.9 µM

Question: And the GI50 (HCT-15 colon)?
Answer: 9.36 µM

Question: And the TGI (HCT-15 colon)?
Answer: 25.4 µM

Question: What about the GI50 (IGROV1 ovarian) of the same compound?
Answer: 13.8 µM

Question: And the TGI (IGROV1 ovarian)?
Answer: 51.4 µM

Question: What about the GI50 (U251 CNS) of the same compound?
Answer: 18.4 µM

Question: What about the TGI (U251 CNS) of the same compound?
Answer: 88.6 µM

Question: And the GI50 (SW-620 colon)?
Answer: 11.3 µM

Question: And the TGI (SW-620 colon)?
Answer: 25.7 µM

Question: What about the GI50 (786-0 renal) of the same compound?
Answer: 31.5 µM

Question: What about the TGI (786-0 renal) of the same compound?
Answer: > 100 µM

Question: And the GI50 (SR leukemia)?
Answer: 2.44 µM

Question: What about the TGI (SR leukemia) of the same compound?
Answer: 19.7 µM

Question: And the GI50 (OVCAR-4 ovarian)?
Answer: 20.1 µM

Question: And the TGI (OVCAR-4 ovarian)?
Answer: 95.6 µM

Question: What about the GI50 (NCI/ADR-RES ovarian) of the same compound?
Answer: 30.4 µM

Question: And the TGI (NCI/ADR-RES ovarian)?
Answer: > 100 µM

Question: What about the GI50 (COLO 205 colon) of the same compound?
Answer: 18.9 µM

Question: And the TGI (COLO 205 colon)?
Answer: 71.4 µM

Question: What about the GI50 (UACC-257 melanoma) of the same compound?
Answer: 38.6 µM

Question: What about the TGI (UACC-257 melanoma) of the same compound?
Answer: > 100 µM

Question: And the GI50 (TK-10 renal)?
Answer: 36.9 µM

Question: What about the TGI (TK-10 renal) of the same compound?
Answer: > 100 µM

Question: What about the GI50 (RXF 393 renal) of the same compound?
Answer: 10.8 µM

Question: What about the TGI (RXF 393 renal) of the same compound?
Answer: 72.5 µM

Question: And the GI50 (SK-MEL-2 melanoma)?
Answer: 40.1 µM

Question: And the TGI (SK-MEL-2 melanoma)?
Answer: > 100 µM

Question: And the GI50 (MALME-3M melanoma)?
Answer: 11.3 µM

Question: And the TGI (MALME-3M melanoma)?
Answer: 24.9 µM

Question: What about the GI50 (HOP-62 NSCLC) of the same compound?
Answer: 47.7 µM

Question: What about the TGI (HOP-62 NSCLC) of the same compound?
Answer: > 100 µM

Question: And the GI50 (SF-268 CNS)?
Answer: 67.7 µM

Question: What about the TGI (SF-268 CNS) of the same compound?
Answer: > 100 µM

Question: What about the GI50 (UACC-62 melanoma) of the same compound?
Answer: 21 µM

Question: And the TGI (UACC-62 melanoma)?
Answer: > 100 µM

Question: And the GI50 (SNB-75 CNS)?
Answer: 4.47 µM

Question: And the TGI (SNB-75 CNS)?
Answer: > 100 µM

Question: What about the GI50 (ACHN renal) of the same compound?
Answer: 13.6 µM

Question: What about the TGI (ACHN renal) of the same compound?
Answer: 46.2 µM

Question: What about the GI50 (KM12 colon) of the same compound?
Answer: > 100 µM

Question: What about the TGI (KM12 colon) of the same compound?
Answer: > 100 µM

Question: What about the GI50 (OVCAR-5 ovarian) of the same compound?
Answer: 23.3 µM

Question: And the TGI (OVCAR-5 ovarian)?
Answer: > 100 µM

Question: What about the GI50 (SK-OV-3 ovarian) of the same compound?
Answer: 62.6 µM

Question: What about the TGI (SK-OV-3 ovarian) of the same compound?
Answer: > 100 µM

Question: What about the GI50 (SNB-19 CNS) of the same compound?
Answer: 51 µM

Question: What about the TGI (SNB-19 CNS) of the same compound?
Answer: > 100 µM

Question: And the GI50 (SF-295 CNS)?
Answer: > 100 µM

Question: What about the TGI (SF-295 CNS) of the same compound?
Answer: > 100 µM

Question: And the GI50 (M14 melanoma)?
Answer: 14.2 µM

Question: What about the TGI (M14 melanoma) of the same compound?
Answer: 32.9 µM

Question: And the GI50 (SN12C renal)?
Answer: 13.5 µM

Question: What about the TGI (SN12C renal) of the same compound?
Answer: 34.3 µM

Question: What about the GI50 (HOP-92 NSCLC) of the same compound?
Answer: 24.4 µM

Question: What about the TGI (HOP-92 NSCLC) of the same compound?
Answer: > 100 µM

Question: What about the GI50 (HL-60(TB) leukemia) of the same compound?
Answer: 27.4 µM

Question: And the TGI (HL-60(TB) leukemia)?
Answer: > 100 µM

Question: And the GI50 (K-562 leukemia)?
Answer: 6.46 µM

Question: And the TGI (K-562 leukemia)?
Answer: > 100 µM

Question: And the GI50 (PC-3 prostate)?
Answer: 30.4 µM

Question: And the TGI (PC-3 prostate)?
Answer: > 100 µM

Question: What about the GI50 (RPMI-8226 leukemia) of the same compound?
Answer: 16.7 µM

Question: What about the TGI (RPMI-8226 leukemia) of the same compound?
Answer: > 100 µM

Question: What about the GI50 (MCF7 breast) of the same compound?
Answer: 1.78 µM

Question: What about the TGI (MCF7 breast) of the same compound?
Answer: 34.6 µM

Question: And the GI50 (HS 578T breast)?
Answer: 29.3 µM

Question: And the TGI (HS 578T breast)?
Answer: > 100 µM

Question: What about the GI50 (HCC-2998 colon) of the same compound?
Answer: 37.9 µM

Question: What about the TGI (HCC-2998 colon) of the same compound?
Answer: > 100 µM

Question: What about the GI50 (MDA-MB-435) of the same compound?
Answer: 26.5 µM

Question: What about the TGI (MDA-MB-435) of the same compound?
Answer: > 100 µM

Question: And the GI50 (BT-549 breast)?
Answer: 16 µM

Question: And the TGI (BT-549 breast)?
Answer: 72.6 µM

Question: What about the GI50 (DU-145 prostate) of the same compound?
Answer: 16.6 µM

Question: What about the TGI (DU-145 prostate) of the same compound?
Answer: 53.1 µM

Question: And the GI50 (SK-MEL-5 melanoma)?
Answer: 29.1 µM

Question: And the TGI (SK-MEL-5 melanoma)?
Answer: > 100 µM

Question: What about the GI50 (T-47D breast) of the same compound?
Answer: 14.3 µM

Question: What about the TGI (T-47D breast) of the same compound?
Answer: > 100 µM

Question: And the GI50 (LOX IMVI melanoma)?
Answer: 1.61 µM

Question: What about the TGI (LOX IMVI melanoma) of the same compound?
Answer: 3.41 µM

Question: What about the GI50 (NCI-H23 lung) of the same compound?
Answer: 17.1 µM

Question: And the TGI (NCI-H23 lung)?
Answer: 53 µM

Question: And the GI50 (NCI-H460 lung)?
Answer: 25.3 µM

Question: What about the TGI (NCI-H460 lung) of the same compound?
Answer: > 100 µM

Question: And the GI50 (HT29 colon)?
Answer: 11.8 µM

Question: And the TGI (HT29 colon)?
Answer: 33 µM

Question: What about the GI50 (SK-MEL-28 melanoma) of the same compound?
Answer: 54.4 µM

Question: What about the TGI (SK-MEL-28 melanoma) of the same compound?
Answer: > 100 µM

Question: And the GI50 (NCI-H226 lung)?
Answer: 31.5 µM

Question: What about the TGI (NCI-H226 lung) of the same compound?
Answer: > 100 µM

Question: What about the GI50 (A549 NSCLC) of the same compound?
Answer: 18.8 µM

Question: And the TGI (A549 NSCLC)?
Answer: > 100 µM

Question: And the GI50 (A498 renal)?
Answer: > 100 µM

Question: And the TGI (A498 renal)?
Answer: > 100 µM

Question: What about the GI50 (HCT-116 colon) of the same compound?
Answer: 12.5 µM

Question: And the TGI (HCT-116 colon)?
Answer: 41.2 µM

Question: What about the GI50 (EKVX NSCLC) of the same compound?
Answer: 58.3 µM

Question: What about the TGI (EKVX NSCLC) of the same compound?
Answer: > 100 µM

Question: And the GI50 (MDA-MB-231 breast)?
Answer: 20 µM

Question: What about the TGI (MDA-MB-231 breast) of the same compound?
Answer: 88.4 µM
